Source: patent US20260215428A1, “WEED CONTROL METHOD” (SYNGENTA CROP PROTECTION AG, priority 2023, published 2026)

Key:
Assay type in all cases: in vivo
[1] = test system: Digitaria sanguinalis; assay: Glasshouse post-emergence test, visual damage, Table B1-4; settings: 14 days after application
Method: Seeds of a variety of test species are sown in standard soil in pots. For each treatment, three replicate pots containing 10-15 plants per one-inch pot were sprayed at the 2-3 leaf stage. Clethodim and Compound (Ic) were each applied at 15, 30, 60 and 120 g ai/ha. The test plants are then grown in a glasshouse under controlled conditions in a glasshouse (at 24/16° C., day/night; 14 hours light; 65% humidity) and watered twice daily. Plants were assessed for visual damage compared to the untreated control 14 days after application (0=0% damage; 100=100% damage).

[2] = test system: Lolium multiflorum; assay: Further glasshouse test versus other ACCase-inhibiting herbicides, Table B2-1; settings: 21 days after application
Text: (§1) Further tests were employed to test the efficacy of a compound of Formula I versus other ACCase-inhibiting herbicides. The five main targets were Lolium multiflorum, Eleusine indica, Digitaria insularis, Sorghum halepense and Echinochloa crus-galli. Collectively, the populations contained all the major target-site resistance mutations affecting ACCase herbicides. Two L. multiflorum (LM-NTSR-1 and LM-NTSR-2) and one E. crus-galli (ECG-NTSR-1) populations were characterised exclusively by non-target-site resistance (“NTSR”). The target-site resistant L. multiflorum and E. indication populations were 100% homozygous for different ACCase mutations whilst the D. insularis, S. halepense and E. crus-galli samples contained a mixture of homozygous wild and mutant individuals at different genotypic frequencies. Additional underlying NTSR cannot be ruled out in the populations characterised by target-site resistance.
(§2) Around 50 seeds of each of the 24 weed populations were sown in 12-cm pots containing a mixture of peat and compost in a 1:1 ratio. The pots were watered, fertilised and kept in controlled glasshouse conditions set at 24° C./16 hr day, 18° C. night, 65% relative humidity, and a photon flux density of approximately 250 μmol quanta m^−2 s^−1 for Lolium multiflorum. The E. indica, D. insularis, S. halepense and E. crus-galli plants were kept in a separate glasshouse bay characterised by a 17 H photoperiod of 180 μmol m^−2 s^−1 with temperatures of 25° C. day and 19° C. night and 65% relative humidity. When the plants were at the two to four-leaf stage, they were treated with the various ACCase-inhibiting herbicides at 0, 15, 30, 60, 120 and 240 g ai ha^−1 in a spray cabinet mounted with a single mobile Teejet flat fan nozzle (11002VS) calibrated to deliver 200 L ha^−1 at 200 kPa. The L. multiflorum populations were treated by a compound of Formula Ic, clodinafop-propargyl, pinoxaden, cycloxydim and clethodim and the warm season grass weeds E. indica, D. insularis, S. halepense and E. crus-galli were sprayed with a Compound Ic and the commonly employed haloxyfop-methyl and clethodim. Three replicate pots were used per population. Plants were assessed for visual damage compared to the untreated control 21 days after application (0=0% damage; 100=100% damage).

[3] = test system: Digitaria insularis; assay: Further glasshouse test versus other ACCase-inhibiting herbicides, Table B2-3; settings: 21 days after application
Text: as §1, §2

[4] = test system: Sorghum halepense; assay: Further glasshouse test versus other ACCase-inhibiting herbicides, Table B2-4; settings: 21 days after application
Text: as §1, §2

[5] = biotype I1781L (heterozygous), 15 g/ha
[6] = biotype I1781L (heterozygous), 30 g/ha
[7] = biotype I1781L (heterozygous), 60 g/ha
[8] = biotype I1781L (heterozygous), 120 g/ha
[9] = population LM-NTSR-1 (non-target-site resistance), 15 g/ha
[10] = population LM-NTSR-1 (non-target-site resistance), 30 g/ha
[11] = population LM-NTSR-1 (non-target-site resistance), 60 g/ha
[12] = population LM-NTSR-1 (non-target-site resistance), 120 g/ha
[13] = population LM-NTSR-1 (non-target-site resistance), 240 g/ha
[14] = population LM-NTSR-2 (non-target-site resistance), 15 g/ha
[15] = population LM-NTSR-2 (non-target-site resistance), 30 g/ha
[16] = population LM-NTSR-2 (non-target-site resistance), 60 g/ha
[17] = population LM-NTSR-2 (non-target-site resistance), 120 g/ha
[18] = population LM-NTSR-2 (non-target-site resistance), 240 g/ha

In the case of `CC#Cc1ccc(C2=C(OC(=O)OC)C3CCC(C3)C2=O)c(OC)c1` (stereo not shown) [Compound Ic], the visual damage [1, 5] is reported as 73%, the visual damage [1, 6] is reported as 90% and the visual damage [1, 7] is reported as 100%. The visual damage [1, 8] was 100%, the visual damage ([1]; biotype Sensitive, 15 g/ha) was 90% and the visual damage ([1]; biotype Sensitive, 30 g/ha) was 100%. The visual damage ([1]; biotype Sensitive, 60 g/ha) was 100%, the visual damage ([1]; biotype Sensitive, 120 g/ha) was 100% and the visual damage ([2]; biotype C2088R, 15 g/ha) was 100%. The visual damage ([2]; biotype C2088R, 30 g/ha) was 100%, the visual damage ([2]; biotype C2088R, 60 g/ha) was 100% and the visual damage ([2]; biotype C2088R, 120 g/ha) was 100%. It also gave a visual damage ([2]; biotype C2088R, 240 g/ha) of 100%, a visual damage ([2]; biotype D2078G, 15 g/ha) of 20% and a visual damage ([2]; biotype D2078G, 30 g/ha) of 90%. It also gave a visual damage ([2]; biotype D2078G, 60 g/ha) of 100%, a visual damage ([2]; biotype D2078G, 120 g/ha) of 100% and a visual damage ([2]; biotype D2078G, 240 g/ha) of 100%. It also gave a visual damage ([2]; biotype I1781L, 15 g/ha) of 100%, a visual damage ([2]; biotype I1781L, 30 g/ha) of 100% and a visual damage ([2]; biotype I1781L, 60 g/ha) of 100%. The visual damage ([2]; biotype I1781L, 120 g/ha) was 100%, the visual damage ([2]; biotype I1781L, 240 g/ha) was 100% and the visual damage ([2]; biotype Sensitive, 15 g/ha) was 100%. For the same molecule, the visual damage ([2]; biotype Sensitive, 30 g/ha) was 100%, the visual damage ([2]; biotype Sensitive, 60 g/ha) was 100% and the visual damage ([2]; biotype Sensitive, 120 g/ha) was 100%. The visual damage ([2]; biotype Sensitive, 240 g/ha) was 100%, the visual damage ([2]; biotype W1999S, 15 g/ha) was 85% and the visual damage ([2]; biotype W1999S, 30 g/ha) was 100%. It also gave a visual damage ([2]; biotype W1999S, 60 g/ha) of 100%, a visual damage ([2]; biotype W1999S, 120 g/ha) of 100% and a visual damage ([2]; biotype W1999S, 240 g/ha) of 100%. The visual damage ([2]; biotype W2027C, 15 g/ha) was 88%, the visual damage ([2]; biotype W2027C, 30 g/ha) was 100% and the visual damage ([2]; biotype W2027C, 60 g/ha) was 100%. It also gave a visual damage ([2]; biotype W2027C, 120 g/ha) of 100%, a visual damage ([2]; biotype W2027C, 240 g/ha) of 100% and a visual damage [2, 9] of 93%. It also gave a visual damage [2, 10] of 100%, a visual damage [2, 11] of 100% and a visual damage [2, 12] of 100%. It also gave a visual damage [2, 13] of 100%, a visual damage [2, 14] of 48% and a visual damage [2, 15] of 82%. It also gave a visual damage [2, 16] of 87%, a visual damage [2, 17] of 100% and a visual damage [2, 18] of 100%. It also gave a visual damage ([3]; biotype Sensitive, 15 g/ha) of 100%, a visual damage ([3]; biotype Sensitive, 30 g/ha) of 100% and a visual damage ([3]; biotype Sensitive, 60 g/ha) of 100%. It also gave a visual damage ([3]; biotype Sensitive, 120 g/ha) of 100%, a visual damage ([3]; biotype Sensitive, 240 g/ha) of 100% and a visual damage ([3]; biotype W2027C, 15 g/ha) of 100%. The visual damage ([3]; biotype W2027C, 30 g/ha) was 100%, the visual damage ([3]; biotype W2027C, 60 g/ha) was 100% and the visual damage ([3]; biotype W2027C, 120 g/ha) was 100%. The visual damage ([3]; biotype W2027C, 240 g/ha) was 100%, the visual damage ([4]; biotype Sensitive, 15 g/ha) was 95% and the visual damage ([4]; biotype Sensitive, 30 g/ha) was 97%. The visual damage ([4]; biotype Sensitive, 60 g/ha) was 100%, the visual damage ([4]; biotype Sensitive, 120 g/ha) was 100% and the visual damage ([4]; biotype Sensitive, 240 g/ha) was 100%. For the same molecule, the visual damage ([4]; biotype W2027C, 15 g/ha) was 65%, the visual damage ([4]; biotype W2027C, 30 g/ha) was 80% and the visual damage ([4]; biotype W2027C, 60 g/ha) was 98%. It also gave a visual damage ([4]; biotype W2027C, 120 g/ha) of 100% and a visual damage ([4]; biotype W2027C, 240 g/ha) of 100%.

Work on `CCSC(C)CC1CC(=O)C(/C(CC)=N/OC/C=C/Cl)=C(O)C1` (stereo not shown) [Clethodim, clethodim] yielded a visual damage [1, 5] of 20%, a visual damage [1, 6] of 20% and a visual damage [1, 7] of 53%. For the same molecule, the visual damage [1, 8] was 67%, the visual damage ([1]; biotype Sensitive, 15 g/ha) was 87% and the visual damage ([1]; biotype Sensitive, 30 g/ha) was 90%. The visual damage ([1]; biotype Sensitive, 60 g/ha) was 100%, the visual damage ([1]; biotype Sensitive, 120 g/ha) was 100% and the visual damage ([2]; biotype C2088R, 15 g/ha) was 0%. For the same molecule, the visual damage ([2]; biotype C2088R, 30 g/ha) was 13%, the visual damage ([2]; biotype C2088R, 60 g/ha) was 40% and the visual damage ([2]; biotype C2088R, 120 g/ha) was 90%. The visual damage ([2]; biotype C2088R, 240 g/ha) was 100%, the visual damage ([2]; biotype D2078G, 15 g/ha) was 10% and the visual damage ([2]; biotype D2078G, 30 g/ha) was 17%. It also gave a visual damage ([2]; biotype D2078G, 60 g/ha) of 27%, a visual damage ([2]; biotype D2078G, 120 g/ha) of 70% and a visual damage ([2]; biotype D2078G, 240 g/ha) of 100%. The visual damage ([2]; biotype I1781L, 15 g/ha) was 23%, the visual damage ([2]; biotype I1781L, 30 g/ha) was 53% and the visual damage ([2]; biotype I1781L, 60 g/ha) was 70%. For the same molecule, the visual damage ([2]; biotype I1781L, 120 g/ha) was 100%, the visual damage ([2]; biotype I1781L, 240 g/ha) was 100% and the visual damage ([2]; biotype Sensitive, 15 g/ha) was 100%. The visual damage ([2]; biotype Sensitive, 30 g/ha) was 100%, the visual damage ([2]; biotype Sensitive, 60 g/ha) was 100% and the visual damage ([2]; biotype Sensitive, 120 g/ha) was 100%. For the same molecule, the visual damage ([2]; biotype Sensitive, 240 g/ha) was 100%, the visual damage ([2]; biotype W1999S, 15 g/ha) was 27% and the visual damage ([2]; biotype W1999S, 30 g/ha) was 98%. It also gave a visual damage ([2]; biotype W1999S, 60 g/ha) of 100%, a visual damage ([2]; biotype W1999S, 120 g/ha) of 100% and a visual damage ([2]; biotype W1999S, 240 g/ha) of 100%. The visual damage ([2]; biotype W2027C, 15 g/ha) was 63%, the visual damage ([2]; biotype W2027C, 30 g/ha) was 100% and the visual damage ([2]; biotype W2027C, 60 g/ha) was 100%. The visual damage ([2]; biotype W2027C, 120 g/ha) was 100%, the visual damage ([2]; biotype W2027C, 240 g/ha) was 100% and the visual damage [2, 9] was 63%. For the same molecule, the visual damage [2, 10] was 97%, the visual damage [2, 11] was 100% and the visual damage [2, 12] was 100%. It also gave a visual damage [2, 13] of 100%, a visual damage [2, 14] of 3% and a visual damage [2, 15] of 55%. It also gave a visual damage [2, 16] of 70%, a visual damage [2, 17] of 75% and a visual damage [2, 18] of 95%. The visual damage ([3]; biotype Sensitive, 15 g/ha) was 100%, the visual damage ([3]; biotype Sensitive, 30 g/ha) was 100% and the visual damage ([3]; biotype Sensitive, 60 g/ha) was 100%. The visual damage ([3]; biotype Sensitive, 120 g/ha) was 100%, the visual damage ([3]; biotype Sensitive, 240 g/ha) was 100% and the visual damage ([3]; biotype W2027C, 15 g/ha) was 78%. For the same molecule, the visual damage ([3]; biotype W2027C, 30 g/ha) was 100%, the visual damage ([3]; biotype W2027C, 60 g/ha) was 100% and the visual damage ([3]; biotype W2027C, 120 g/ha) was 100%. It also gave a visual damage ([3]; biotype W2027C, 240 g/ha) of 100%, a visual damage ([4]; biotype Sensitive, 15 g/ha) of 83% and a visual damage ([4]; biotype Sensitive, 30 g/ha) of 98%. The visual damage ([4]; biotype Sensitive, 60 g/ha) was 100%, the visual damage ([4]; biotype Sensitive, 120 g/ha) was 93% and the visual damage ([4]; biotype Sensitive, 240 g/ha) was 98%. For the same molecule, the visual damage ([4]; biotype W2027C, 15 g/ha) was 50%, the visual damage ([4]; biotype W2027C, 30 g/ha) was 92% and the visual damage ([4]; biotype W2027C, 60 g/ha) was 100%. It also gave a visual damage ([4]; biotype W2027C, 120 g/ha) of 100% and a visual damage ([4]; biotype W2027C, 240 g/ha) of 100%.
